Laboratory results taken from patent US9745288B2, “Compounds and methods for treating cancer by inhibiting the urokinase receptor” (Indiana University Research and Technology Corporation, priority 2011, dated 2017).

System: MMP-9
Assay: Gelatin zymography of MDA-MB-231 conditioned medium
Type: cell-based, human
Experimental: Gelatin Zymography. MDA-MB-231 cells were treated with different concentrations of uPAR compounds in serum free medium for 24 h, the conditioned medium were collected, concentrated by Amicon Ultra centrifugal filter units (Millipore, #UFC500324), proteins were normalized and electrophoresed on sodium dodecyl sulfate (SDS)-polyacrylamide gels (10%) containing 1 mg/mL gelatin. After electrophoresis, the gel was washed twice in 50 mM Tris-HCl (pH 7.6) containing 5 mM CaCl2 and 2.5% Triton X-100 for 30 minutes at room temperature and incubated in buffer that contained 50 mM Tris-HCl (pH 7.6), 200 mM NaCl, 10 mM CaCl2 at 37° C. for 36 h. Then, the gels were stained with 0.05% Coomassie brilliant blue (CBB) and destained with 30% methanol in 10% acetic acid. Areas of gelatinolytic degradation appeared as transparent bands on the blue stained background of the gel. Data were quantified using Image J.
To degrade collagen within the ECM, malignant cells unleash a series of extracelullar proteases known as matrix metalloproteinases (MMPs).

## Cc1cc(C)cc(NC(=O)c2cnn(-c3ccc(C(C)C)cc3)c2C2CCNCC2)c1 [IPR-69, N-(3,5-dimethylphenyl)-1-(4-isopropylphenyl)-5-(piperidin-4-yl)-1H-pyrazole-4-carboxamide]
  MMP-9 activity in gelatin zymography: some inhibition of MMP-9
estimated, read-out: IC50 for inhibition of MMP-9 activity
  IC50: 25 µM
